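48-hour exposure; five concentrations; linearly interpolated endpoints. GI50 is the concentration that inhibits growth by half.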 Activity calls are given as the source filed them. Rule as the data show it: active = GI50 up to about 1.1 µM and inactive = higher.
Tests used:
Test in all cases: NCI-60 cell line screen, 48 h
SW-620 = system: SW-620
K562 = system: K562
SNB-75 = system: SNB-75
NCI-H23 = system: NCI-H23
A549 = system: A549
HT-29 = system: HT-29
KM12 = system: KM12
OVCAR-8 = system: OVCAR-8
MOLT-4 = system: MOLT-4
SK-MEL-28 = system: SK-MEL-28
HL-60 = system: HL-60
SF-268 = system: SF-268
U-251 = system: U-251
SF-295 = system: SF-295
SN12C = system: SN12C
SNB-19 = system: SNB-19
CCRF-CEM = system: CCRF-CEM
NCI-H460 = system: NCI-H460
OVCAR-3 = system: OVCAR-3
SK-MEL-5 = system: SK-MEL-5

Row | Compound | GI50 (SW-620) | GI50 (K562) | GI50 (SNB-75) | GI50 (NCI-H23) | GI50 (A549) | GI50 (HT-29) | GI50 (KM12) | GI50 (OVCAR-8) | GI50 (MOLT-4) | GI50 (SK-MEL-28) | GI50 (HL-60) | GI50 (SF-268) | GI50 (U-251) | GI50 (SF-295) | GI50 (SN12C) | GI50 (SNB-19) | GI50 (CCRF-CEM) | GI50 (NCI-H460) | GI50 (OVCAR-3) | GI50 (SK-MEL-5)
1 | C=C(/C=C/C=C(/CCC=C(C)C)COC(C)=O)[C@@H]1CC[C@]2([C@H](CCCO)/C(=C(/C)C=O)CC[C@]2(C)O)[C@@H]1O | 2.42 µM (inactive) | 2.92 µM (inactive) | > 10 µM (inactive) | 18.8 µM (inactive) | 3.27 µM (inactive) | 14.8 µM (inactive) | 16.2 µM (inactive) | 22.1 µM (inactive) | 9.29 µM (inactive) | 13.7 µM (inactive) | 0.912 µM (active) | 15.7 µM (inactive) | 15 µM (inactive) | 0.973 µM (active) | 15.8 µM (inactive) | 16.1 µM (inactive) | 1.86 µM (inactive) | 0.414 µM (active) | – | –
2 | CN(C)CCCn1c(-c2ccc(Br)cc2)cs/c1=N\c1ccccc1 | – | 11.6 µM (inactive) | 15.8 µM (inactive) | 10.7 µM (inactive) | 17.5 µM (inactive) | – | 13 µM (inactive) | 15.9 µM (inactive) | 15.4 µM (inactive) | 18.5 µM (inactive) | 1.4 µM (inactive) | 17.1 µM (inactive) | 49.2 µM (inactive) | 11.2 µM (inactive) | 18.5 µM (inactive) | 14.5 µM (inactive) | 28.8 µM (inactive) | 12.2 µM (inactive) | 10.6 µM (inactive) | –
3 | O=C1C2C3SC(c4cc5ccccc5cc43)C2C(=O)N1c1ccccc1 (stereo not drawn) | > 100 µM (inactive) | > 100 µM (inactive) | 19.8 µM (inactive) | 98.9 µM (inactive) | > 100 µM (inactive) | > 100 µM (inactive) | > 100 µM (inactive) | 90.6 µM (inactive) | > 100 µM (inactive) | 88.5 µM (inactive) | > 100 µM (inactive) | > 100 µM (inactive) | 68.2 µM (inactive) | > 100 µM (inactive) | > 100 µM (inactive) | 30.7 µM (inactive) | > 100 µM (inactive) | – | > 100 µM (inactive) | > 100 µM (inactive)
4 | O=C1CCCC2=C1CC1=C(CCCC1=O)N2c1cccc([N+](=O)[O-])c1 | > 100 µM (inactive) | > 100 µM (inactive) | > 100 µM (inactive) | > 100 µM (inactive) | > 100 µM (inactive) | > 100 µM (inactive) | > 100 µM (inactive) | > 100 µM (inactive) | > 100 µM (inactive) | > 100 µM (inactive) | > 100 µM (inactive) | > 100 µM (inactive) | > 100 µM (inactive) | – | > 100 µM (inactive) | > 100 µM (inactive) | > 100 µM (inactive) | > 100 µM (inactive) | > 100 µM (inactive) | > 100 µM (inactive)
5 | CCOC(=O)c1csc(NC(=O)CCN2CCN(C)CC2)n1 | 43.2 µM (inactive) | 69.8 µM (inactive) | > 100 µM (inactive) | > 100 µM (inactive) | > 100 µM (inactive) | 62.1 µM (inactive) | > 100 µM (inactive) | > 100 µM (inactive) | 65.5 µM (inactive) | > 100 µM (inactive) | 75.5 µM (inactive) | – | > 100 µM (inactive) | > 100 µM (inactive) | – | > 100 µM (inactive) | 54.8 µM (inactive) | > 100 µM (inactive) | > 100 µM (inactive) | > 100 µM (inactive)
6 | c1ccc2c(c1)c1c(n2CCOCCCN2CCCCC2)CCCC1 | 19.5 µM (inactive) | 14 µM (inactive) | 16 µM (inactive) | 17.6 µM (inactive) | 18.4 µM (inactive) | 12 µM (inactive) | 15 µM (inactive) | 17.6 µM (inactive) | 4.36 µM (inactive) | 20.1 µM (inactive) | 10.1 µM (inactive) | 28.2 µM (inactive) | 16 µM (inactive) | – | 13.6 µM (inactive) | 27.5 µM (inactive) | – | 13.9 µM (inactive) | 13.2 µM (inactive) | 20.6 µM (inactive)
7 | O=C(O)c1nccnc1C(=O)O | > 100 µM (inactive) | > 100 µM (inactive) | > 100 µM (inactive) | > 100 µM (inactive) | > 100 µM (inactive) | > 100 µM (inactive) | > 100 µM (inactive) | – | > 100 µM (inactive) | > 100 µM (inactive) | > 100 µM (inactive) | > 100 µM (inactive) | > 100 µM (inactive) | > 100 µM (inactive) | > 100 µM (inactive) | > 100 µM (inactive) | > 100 µM (inactive) | > 100 µM (inactive) | – | > 100 µM (inactive)
8 | O=C(c1ccccc1)c1cc(Cl)ccc1NCn1nnc2ccccc21 | 48.2 µM (inactive) | 34.6 µM (inactive) | 35.1 µM (inactive) | > 100 µM (inactive) | 46 µM (inactive) | 51.1 µM (inactive) | 33.2 µM (inactive) | > 100 µM (inactive) | 42.1 µM (inactive) | – | 25.2 µM (inactive) | – | 55.2 µM (inactive) | 85.3 µM (inactive) | 76.4 µM (inactive) | > 100 µM (inactive) | 77.4 µM (inactive) | 69.5 µM (inactive) | 93.3 µM (inactive) | –
9 | CCCC(=O)Nc1cc2c3c(c1)CCCN3CCC2 | > 10 µM (inactive) | > 10 µM (inactive) | > 10 µM (inactive) | 3.77 µM (inactive) | > 10 µM (inactive) | > 10 µM (inactive) | > 10 µM (inactive) | > 10 µM (inactive) | – | > 10 µM (inactive) | > 10 µM (inactive) | > 10 µM (inactive) | > 10 µM (inactive) | > 10 µM (inactive) | > 10 µM (inactive) | > 10 µM (inactive) | > 10 µM (inactive) | – | > 10 µM (inactive) | > 10 µM (inactive)
10 | Cc1cc2nc3c(C(O)CO)nn(-c4ccccc4)c3nc2cc1C (stereo not drawn) | 20.5 µM (inactive) | 12.9 µM (inactive) | 22.4 µM (inactive) | 23 µM (inactive) | 12.9 µM (inactive) | 15 µM (inactive) | 16.2 µM (inactive) | 23.2 µM (inactive) | 4.3 µM (inactive) | 20.7 µM (inactive) | 21.6 µM (inactive) | 23.7 µM (inactive) | 15.2 µM (inactive) | 15.7 µM (inactive) | 13.8 µM (inactive) | 22.9 µM (inactive) | – | 12.7 µM (inactive) | 15.8 µM (inactive) | 30.9 µM (inactive)
11 | COc1ccc(C(=O)/C=C/c2ccc(OCCCOc3ccc(/C=C/C(=O)c4ccc(OC)cc4)cc3)cc2)cc1 | > 100 µM (inactive) | > 100 µM (inactive) | 45.4 µM (inactive) | – | > 100 µM (inactive) | 56.1 µM (inactive) | 91.2 µM (inactive) | > 100 µM (inactive) | > 100 µM (inactive) | 63 µM (inactive) | > 100 µM (inactive) | 52.2 µM (inactive) | > 100 µM (inactive) | > 100 µM (inactive) | > 100 µM (inactive) | > 100 µM (inactive) | > 100 µM (inactive) | > 100 µM (inactive) | – | > 100 µM (inactive)
12 | C[N+](C)(C)/C=N\c1cccc2c1CCCC2 | – | 18 µM (inactive) | 56.5 µM (inactive) | 79.6 µM (inactive) | 72.9 µM (inactive) | 58.1 µM (inactive) | – | > 100 µM (inactive) | > 100 µM (inactive) | > 100 µM (inactive) | 0.0885 µM (active) | > 100 µM (inactive) | 88.3 µM (inactive) | > 100 µM (inactive) | > 100 µM (inactive) | > 100 µM (inactive) | 50.7 µM (inactive) | – | > 100 µM (inactive) | 41.2 µM (inactive)
13 | CC(C)NC(=O)OCc1nnn2c1CCC2 | > 100 µM (inactive) | > 100 µM (inactive) | > 100 µM (inactive) | > 100 µM (inactive) | > 100 µM (inactive) | > 100 µM (inactive) | > 100 µM (inactive) | > 100 µM (inactive) | > 100 µM (inactive) | > 100 µM (inactive) | > 100 µM (inactive) | – | > 100 µM (inactive) | > 100 µM (inactive) | > 100 µM (inactive) | – | > 100 µM (inactive) | > 100 µM (inactive) | > 100 µM (inactive) | > 100 µM (inactive)
14 | O=S(O)CCCSSSCCCS(=O)O | – | > 100 µM (inactive) | > 100 µM (inactive) | > 100 µM (inactive) | – | > 100 µM (inactive) | > 100 µM (inactive) | – | > 100 µM (inactive) | > 100 µM (inactive) | > 100 µM (inactive) | > 100 µM (inactive) | > 100 µM (inactive) | – | > 100 µM (inactive) | > 100 µM (inactive) | > 100 µM (inactive) | > 100 µM (inactive) | > 100 µM (inactive) | –
15 | C=C1CC(OC)(C(OC)C(=O)N[C@H]2OCO[C@H]3C2O[C@H](C[C@@H](COC)OC)C(C)(C)C3OC)O[C@H](C)[C@@H]1C (stereo partly drawn) | 0.859 µM (active) | 0.815 µM (active) | 1.21 µM (inactive) | 1.18 µM (inactive) | 0.693 µM (active) | 0.491 µM (active) | 0.603 µM (active) | 0.861 µM (active) | 0.522 µM (active) | 0.764 µM (active) | 0.412 µM (active) | – | 0.918 µM (active) | 0.851 µM (active) | 0.746 µM (active) | 0.611 µM (active) | 0.21 µM (active) | 0.746 µM (active) | 0.755 µM (active) | 0.622 µM (active)

Source: ChEMBL document CHEMBL1201862, “PubChem BioAssay data set” (2004)
